{"source": "paper PMC2796602", "about": "(Journal of the American Chemical Society, 2009)", "key": {"[1]": {"system": "hypoxia-induced gene expression in MCF7 cells", "assay": "Gene expression profiling with Affymetrix Human Gene ST 1.0 microarrays", "assay_type": "cell-based", "conditions": "300 μM DFO"}, "MCF7 cells": {"system": "MCF7 cells", "assay": "Cell viability assay", "assay_type": "cell-based", "conditions": "Homo sapiens, MCF7, 24 h"}, "mice": {"system": "mice", "conditions": "cited from earlier work"}, "HIF-1α levels in cells": {"system": "HIF-1α levels in cells", "assay": "Western blot of HIF-1α levels", "assay_type": "cell-based, human", "conditions": "200 nM, 300 μM DFO"}, "p300-CH1-GST fusion": {"molecular_target": "p300-CH1-GST fusion (Homo sapiens, UniProt Q09472)", "sequence (Q09472 323-423)": "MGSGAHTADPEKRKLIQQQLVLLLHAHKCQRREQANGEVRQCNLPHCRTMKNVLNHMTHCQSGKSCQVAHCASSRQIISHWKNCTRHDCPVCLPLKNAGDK", "assay": "CD spectroscopy of p300-CH1-GST fold", "conditions": "CD spectra"}, "[2]": {"molecular_target": "p300-CH1-GST/HIF-1α C-TAD complex (Homo sapiens, UniProt Q09472)", "sequence (Q09472 323-423, one chain of several)": "as the sequence (Q09472 323-423) above", "assay": "Fluorescence polarization competition assay", "assay_type": "binding"}, "[3]": {"molecular_target": "GST-tagged CH1 domain of human p300 (aa residues 323-423) (Homo sapiens, UniProt Q09472)", "sequence (Q09472 323-423)": "as above", "assay": "SPR binding to immobilized p300-CH1-GST"}, "[4]": {"molecular_target": "p300-CH1-GST fusion protein (GST-tagged CH1 domain of human p300, aa residues 323-423) (human, UniProt Q09472 323-423)", "sequence (Q09472 323-423)": "as above", "assay": "fluorescence polarisation"}}, "note": "Where a name gives a salt, the structure may show the parent alone. No end group written: not given here.", "data": [{"molecule": "CC(=O)N(O)CCCCCNC(=O)CCC(=O)N(O)CCCCCNC(=O)CCC(=O)N(O)CCCCCN", "note": "[DFO, desferrioxamine mesylate]", "values": [{"measurement": "number of transcripts affected (2-fold or more) by DFO treatment alone", "setting": "[1]", "result": 580}, {"measurement": "number of transcripts induced by at least 4-fold (P < 0.01)", "setting": "[1]", "result": 43}]}, {"molecule": "CN1C(=O)[C@]2(Cc3cn([C@]45C[C@@]67SS[C@@](CO)(C(=O)N6[C@H]4Nc4ccccc45)N(C)C7=O)c4ccccc34)SS[C@@]1(CO)C(=O)N2C", "note": "[compound 2, chetomin]", "values": [{"measurement": "GI50", "setting": "MCF7 cells", "result": "180 ± 40", "unit": "nM"}, {"measurement": "effect on vascularization in mice", "setting": "mice", "result": "inhibit vascularization in mice"}, {"measurement": "levels of HIF-1α in hypoxic cells", "setting": "HIF-1α levels in cells", "result": "remained constant"}, {"measurement": "concentration causing structural changes / unfolding of p300-CH1-GST", "setting": "p300-CH1-GST fusion", "result": 1, "unit": "µM"}, {"measurement": "IC50", "setting": "[2]", "result": "540 ± 180", "unit": "nM"}, {"measurement": "Kd", "setting": "[3]", "result": 540, "unit": "nM"}, {"measurement": "off-rate (Kd)", "setting": "[3]; SPR, 100 μM DTT", "result": 0.0033, "unit": "s⁻¹"}]}, {"molecule": "SMDESGLPQLTSYDCEVNAPIQGSRNLLQGEELLRALDQVN (peptide, UniProt Q16665 786-826, looked up, also: fluorescein label, position not given here)", "note": "[fluorescein-labeled C-TAD domain of human HIF-1α (residues 786-826)]", "values": [{"measurement": "binding result", "setting": "[4]", "result": "binds"}]}]}
